*1 amine or outer side, *2 acyl side, *3 side chain or, on linkers, in order; H or OH if unused. Where a SMILES comes first, the peptide text is derived from it. Bridges are numbered along the chain shown (N, C = ends). TATA = O=C(CC[*:1])N1CN(C(=O)CC[*:2])CN(C(=O)CC[*:3])C1
Molecular target: T1, human Nectin-4 (Homo sapiens, UniProt Q96NY8)
T1 sequence (Q96NY8 32-510): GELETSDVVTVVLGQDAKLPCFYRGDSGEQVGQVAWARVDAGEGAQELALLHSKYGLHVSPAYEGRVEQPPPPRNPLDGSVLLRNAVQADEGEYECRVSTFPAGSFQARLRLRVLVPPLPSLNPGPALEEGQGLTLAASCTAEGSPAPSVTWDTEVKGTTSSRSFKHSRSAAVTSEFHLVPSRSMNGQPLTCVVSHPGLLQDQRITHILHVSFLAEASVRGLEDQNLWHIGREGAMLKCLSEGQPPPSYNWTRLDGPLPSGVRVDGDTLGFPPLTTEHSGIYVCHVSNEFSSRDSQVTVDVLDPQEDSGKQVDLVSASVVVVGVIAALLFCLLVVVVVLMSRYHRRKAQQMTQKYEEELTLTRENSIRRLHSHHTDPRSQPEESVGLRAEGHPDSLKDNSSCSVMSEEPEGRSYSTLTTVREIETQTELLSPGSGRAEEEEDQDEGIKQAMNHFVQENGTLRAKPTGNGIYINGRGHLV
Assay: Nectin-4 competition binding assay (fluorescence polarisation)
Settings: competition with fluorescent peptide SEQ ID NO: 217; read-out: Ki
Outline: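 Ki derived by cubic-equation fit of mP data, with tracer peptide concentration, its Kd and Nectin-4 level as fixed inputs. Competition set up by adding 2-fold peptide dilutions (≤5% DMSO), then Nectin-4, then fluorescent peptide; polarisation measured as for direct binding.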

**Q.** Which Ki does the source give for CC[C@H](C)[C@@H]1NC(=O)[C@H](CCCNC(=N)N)NC(=O)[C@H](CC(N)=O)NC(=O)[C@@H]2CSCCC(=O)N3CN(CN(C3)C(=O)CCSC[C@H](NC(=O)[C@H](Cc3c[nH]c4ccccc34)NC(=O)[C@H](CCCCN)NC(=O)[C@H](C)NC(C)=O)C(=O)N[C@@H](C)C(=O)N3CCC[C@H]3C(=O)N[C@@H](CC(C)C)C(=O)N[C@@H](CO)C(=O)N[C@@H](CC(=O)O)C(=O)N[C@@H](Cc3ccc(O)cc3)C(=O)N[C@@H](Cc3c[nH]c4ccccc34)C(=O)N2)C(=O)CCSC[C@@H](C(N)=O)NC1=O [BCY7622, Ac-AKW-(SEQ ID NO: 34)] (Ac-AKWCAPLSDYWCNRIC-NH2; linker 4-12-16 via TATA; C-terminus assumed) here?
**A.** 31 nM

**Q.** CC[C@H](C)[C@@H]1NC(=O)[C@H](CCCNC(=N)N)NC(=O)[C@H](CC(N)=O)NC(=O)[C@@H]2CSCCC(=O)N3CN(CN(C3)C(=O)CCSC[C@H](NC(=O)[C@H](Cc3c[nH]c4ccccc34)NC(=O)[C@H](C)NC(=O)[C@H](CCC(N)=O)NC(C)=O)C(=O)N[C@@H](C)C(=O)N3CCC[C@H]3C(=O)N[C@@H](CC(C)C)C(=O)N[C@@H](CO)C(=O)N[C@@H](CC(=O)O)C(=O)N[C@@H](Cc3ccc(O)cc3)C(=O)N[C@@H](Cc3c[nH]c4ccccc34)C(=O)N2)C(=O)CCSC[C@@H](C(N)=O)NC1=O [BCY7623, Ac-QAW-(SEQ ID NO: 34)] (Ac-QAWCAPLSDYWCNRIC-NH2; linker 4-12-16 via TATA; C-terminus assumed) was tested. Which Ki did it give?
**A.** 21 nM

**Q.** How did the Ki turn out when CC[C@H](C)[C@@H]1NC(=O)[C@H](CCCNC(=N)N)NC(=O)[C@H](CC(N)=O)NC(=O)[C@@H]2CSCCC(=O)N3CN(CN(C3)C(=O)CCSC[C@H](NC(=O)[C@H](C)NC(=O)[C@H](CCCCN)NC(=O)[C@H](CCC(N)=O)NC(C)=O)C(=O)N[C@@H](C)C(=O)N3CCC[C@H]3C(=O)N[C@@H](CC(C)C)C(=O)N[C@@H](CO)C(=O)N[C@@H](CC(=O)O)C(=O)N[C@@H](Cc3ccc(O)cc3)C(=O)N[C@@H](Cc3c[nH]c4ccccc34)C(=O)N2)C(=O)CCSC[C@@H](C(N)=O)NC1=O [BCY7624, Ac-QKA-(SEQ ID NO: 34)] (Ac-QKACAPLSDYWCNRIC-NH2; linker 4-12-16 via TATA; C-terminus assumed) was run?
**A.** 571 nM

**Q.** How did the Ki turn out when CC[C@H](C)[C@@H]1NC(=O)[C@H](CCCNC(=N)N)NC(=O)[C@H](CC(N)=O)NC(=O)[C@@H]2CSCCC(=O)N3CN(CN(C3)C(=O)CCSC[C@H](NC(=O)[C@H](Cc3c[nH]c4ccccc34)NC(=O)[C@H](CCCCN)NC(=O)[C@H](CCC(N)=O)NC(C)=O)C(=O)N[C@@H](C)C(=O)N[C@@H](C)C(=O)N[C@@H](CC(C)C)C(=O)N[C@@H](CO)C(=O)N[C@@H](CC(=O)O)C(=O)N[C@@H](Cc3ccc(O)cc3)C(=O)N[C@@H](Cc3c[nH]c4ccccc34)C(=O)N2)C(=O)CCSC[C@@H](C(N)=O)NC1=O [BCY7625, Ac-QKW-(SEQ ID NO: 103)] (Ac-QKWCAALSDYWCNRIC-NH2; linker 4-12-16 via TATA; C-terminus assumed) was run?
**A.** 141 nM

**Q.** How did the Ki turn out when CC[C@H](C)[C@@H]1NC(=O)[C@H](CCCNC(=N)N)NC(=O)[C@H](CC(N)=O)NC(=O)[C@@H]2CSCCC(=O)N3CN(CN(C3)C(=O)CCSC[C@H](NC(=O)[C@H](Cc3c[nH]c4ccccc34)NC(=O)[C@H](CCCCN)NC(=O)[C@H](CCC(N)=O)NC(C)=O)C(=O)N[C@@H](C)C(=O)N3CCC[C@H]3C(=O)N[C@@H](CC(C)C)C(=O)N[C@@H](C)C(=O)N[C@@H](CC(=O)O)C(=O)N[C@@H](Cc3ccc(O)cc3)C(=O)N[C@@H](Cc3c[nH]c4ccccc34)C(=O)N2)C(=O)CCSC[C@@H](C(N)=O)NC1=O [BCY7627, Ac-QKW-(SEQ ID NO: 104)] (Ac-QKWCAPLADYWCNRIC-NH2; linker 4-12-16 via TATA; C-terminus assumed) was run?
**A.** 101 nM

**Q.** With CC[C@H](C)[C@@H]1NC(=O)[C@H](CCCNC(=N)N)NC(=O)[C@H](C)NC(=O)[C@@H]2CSCCC(=O)N3CN(CN(C3)C(=O)CCSC[C@H](NC(=O)[C@H](Cc3c[nH]c4ccccc34)NC(=O)[C@H](CCCCN)NC(=O)[C@H](CCC(N)=O)NC(C)=O)C(=O)N[C@@H](C)C(=O)N3CCC[C@H]3C(=O)N[C@@H](CC(C)C)C(=O)N[C@@H](CO)C(=O)N[C@@H](CC(=O)O)C(=O)N[C@@H](Cc3ccc(O)cc3)C(=O)N[C@@H](Cc3c[nH]c4ccccc34)C(=O)N2)C(=O)CCSC[C@@H](C(N)=O)NC1=O [BCY7631, Ac-QKW-(SEQ ID NO: 106)] (Ac-QKWCAPLSDYWCARIC-NH2; linker 4-12-16 via TATA; C-terminus assumed) as the compound, how does the Ki read?
**A.** 19 nM

**Q.** How did the Ki turn out when CC[C@H](C)[C@@H]1NC(=O)[C@H](C)NC(=O)[C@H](CC(N)=O)NC(=O)[C@@H]2CSCCC(=O)N3CN(CN(C3)C(=O)CCSC[C@H](NC(=O)[C@H](Cc3c[nH]c4ccccc34)NC(=O)[C@H](CCCCN)NC(=O)[C@H](CCC(N)=O)NC(C)=O)C(=O)N[C@@H](C)C(=O)N3CCC[C@H]3C(=O)N[C@@H](CC(C)C)C(=O)N[C@@H](CO)C(=O)N[C@@H](CC(=O)O)C(=O)N[C@@H](Cc3ccc(O)cc3)C(=O)N[C@@H](Cc3c[nH]c4ccccc34)C(=O)N2)C(=O)CCSC[C@@H](C(N)=O)NC1=O [BCY7632, Ac-QKW-(SEQ ID NO: 107)] (Ac-QKWCAPLSDYWCNAIC-NH2; linker 4-12-16 via TATA; C-terminus assumed) was run?
**A.** 123 nM

**Q.** For CC[C@H](C)[C@@H]1NC(=O)[C@@H]2CCCN2C(=O)[C@H](Cc2c[nH]c3ccccc23)NC(=O)[C@H](CO)NC(=O)[C@H](Cc2c[nH]c3ccccc23)NC(=O)[C@H](CC(N)=O)NC(=O)[C@H](CO)NC(=O)[C@H](CCSC)NC(=O)[C@@H]2CSCCC(=O)N3CN(CN(C3)C(=O)CCSC[C@H](NC(C)=O)C(=O)N3CCC[C@H]3C(=O)N[C@@H](Cc3ccccc3)C(=O)NCC(=O)N2)C(=O)CCSC[C@@H](C(N)=O)NC(=O)[C@H](Cc2c[nH]c3ccccc23)NC1=O [BCY7658, Ac-(SEQ ID NO: 12)] (Ac-CPFGCMSNWSWPIWC-NH2; linker 1-5-15 via TATA; C-terminus assumed), which Ki is on record?
**A.** 33.6 nM

**Q.** CC[C@H](C)[C@@H]1NC(=O)[C@@H]2CCCN2C(=O)[C@H](Cc2c[nH]c3ccccc23)NC(=O)[C@H](CO)NC(=O)[C@H](Cc2c[nH]c3ccccc23)NC(=O)[C@H](CC(N)=O)NC(=O)[C@H](CC(=O)O)NC(=O)[C@H](CCSC)NC(=O)[C@@H]2CSCCC(=O)N3CN(CN(C3)C(=O)CCSC[C@H](NC(C)=O)C(=O)N3CCC[C@H]3C(=O)N[C@@H](Cc3ccccc3)C(=O)NCC(=O)N2)C(=O)CCSC[C@@H](C(N)=O)NC(=O)[C@H](Cc2c[nH]c3ccccc23)NC1=O [BCY7659, Ac-(SEQ ID NO: 13)] (Ac-CPFGCMDNWSWPIWC-NH2; linker 1-5-15 via TATA; C-terminus assumed) was tested. Which Ki did it give?
**A.** 77.9 nM

**Q.** How did the Ki turn out when CC[C@H](C)[C@@H]1NC(=O)[C@@H]2CCCN2C(=O)[C@H](Cc2c[nH]c3ccccc23)NC(=O)[C@H](CO)NC(=O)[C@H](Cc2c[nH]c3ccccc23)NC(=O)[C@H](CC(N)=O)NC(=O)[C@H](CCCCNC(=N)N)NC(=O)[C@H](CCSC)NC(=O)[C@@H]2CSCCC(=O)N3CN(CN(C3)C(=O)CCSC[C@H](NC(C)=O)C(=O)N3CCC[C@H]3C(=O)N[C@@H](Cc3ccccc3)C(=O)NCC(=O)N2)C(=O)CCSC[C@@H](C(N)=O)NC(=O)[C@H](Cc2c[nH]c3ccccc23)NC1=O [BCY7660, Ac-(SEQ ID NO: 59)] was run?
**A.** 26.2 nM
